{
  "source": "patent US20090306200A1",
  "about": "“Prophylactic or Therapeutic Agent for Nocturnal Conduct Disorder Associated With Dementia” (Takeda Pharmaceutical Company Limited, priority 2005, published 2009)",
  "system": "SAMP8/Ta Slc mice",
  "assay": "Measurement of rotational motor activity in mouse (turning wheel; motor activity in light period)",
  "format": "in vivo",
  "conditions": "for Motor Activity in light period, % of Pre: Pre value = 100%; for Motor Activity in light period, %: n = 9",
  "method": "Animals: SAMP8/Ta Slc mice (16 weeks old), and SAMR1/Ta Slc mice (16 weeks old) as control mouse were used. After breeding in a rearing room, they were used after the age of 6-month-old to 8-month-old. A sole isolation breeding was conducted during the breeding. AB system of Neuroscience Co. was used for measurement. The mice were put in separate cages, and the turning wheel's rotation number for every minute by mouse was measured, and the data was analyzed as a motor activity for every hour. A turning wheel was equipped in the cage for measurement. The number in which the mouse rotated the turning wheel was automatically counted every minute with AB system (Neuroscience Co.), and recorded with time course as an amount of movement (motor activity). Using the total value of turning wheel's rotation number in habituation stage, each group was evenly grouped. Compound A was dissolved in water for injection, and water for injection was used as a vehicle. The solution and vehicle were administered as drinking water, respectively. The drinking water was replaced with new one every week. Pre: Habituation period (1 week) First week: Vehicle/Compound A 0.1-0.2 mg/kg/day Second week: Vehicle/Compound A 0.1-0.2 mg/kg/day Third week: Vehicle/Compound A 1-2 mg/kg/day Fourth week: Vehicle/Compound A 1-2 mg/kg/day Fifth week: Vehicle/Compound A 1-2 mg/kg/day The number of rotational movement which was automatically counted every minute by AB system (Neuroscience Co.) was tallied for every hour. Calculation was carried out according to the following sequences. (i) By calculating according to the following mathematical formula: (rotational motor activity in light period of a day)/(rotational motor activity in light period of a day+rotational motor activity in dark period of a day)×100, motor activity % in light period was determined. (ii) The mean value of motor activity % in light period was calculated for every week, and was made a representative value for every week. (iii) In addition, in case that the value of Pre was made 100%, rate of change of motor activity % in light period after administration was shown as % of Pre value. Statistical analysis was performed with t-test or Paired t-test for vehicle administration group and compound A administration group of SAMP8.",
  "key": {"[1]": {"conditions": "1st week, Compound A 0.1-0.2 mg/kg/day in drinking water"}, "[2]": {"conditions": "2nd week, Compound A 0.1-0.2 mg/kg/day in drinking water"}, "[3]": {"conditions": "3rd week, Compound A 1-2 mg/kg/day in drinking water"}, "[4]": {"conditions": "4th week, Compound A 1-2 mg/kg/day in drinking water"}, "[5]": {"conditions": "5th week, Compound A 1-2 mg/kg/day in drinking water"}},
  "note": "Marks after values point to notes of the source that are not given here.",
  "data": [
    {"smiles": "CCC(=O)NCC[C@@H]1CCc2ccc3c(c21)CCO3", "note": "[Compound A, (S)—N-[2-(1,6,7,8-tetrahydro-2H-indeno[5,4-b]furan-8-yl)ethyl]propionamide]", "values": [
      {"measurement": "abnormal behavior in light period of SAMP8", "setting": "0.1-0.2 then 1-2 mg/kg/day in drinking water", "value": "inhibit dose-dependently"},
      {"measurement": "Motor Activity in light period, % of Pre", "setting": "[1]", "value": "97.67 % of Pre"},
      {"measurement": "Motor Activity in light period, %", "setting": "[1]", "value": 30.95, "unit": "%"},
      {"measurement": "Motor Activity in light period, % of Pre", "setting": "[2]", "value": "79.60 % of Pre"},
      {"measurement": "Motor Activity in light period, %", "setting": "[2]", "value": 24.58, "unit": "%"},
      {"measurement": "Motor Activity in light period, % of Pre", "setting": "[3]", "value": "70.25** % of Pre"},
      {"measurement": "Motor Activity in light period, %", "setting": "[3]", "value": "22.82* %"},
      {"measurement": "Motor Activity in light period, % of Pre", "setting": "[4]", "value": "74.77* % of Pre"},
      {"measurement": "Motor Activity in light period, %", "setting": "[4]", "value": "23.75* %"},
      {"measurement": "Motor Activity in light period, % of Pre", "setting": "[5]", "value": "71.64* % of Pre"},
      {"measurement": "Motor Activity in light period, %", "setting": "[5]", "value": "21.18** %"},
      {"measurement": "change of the motor activity % in light period and the % of Pre value compared to the vehicle administered group", "setting": "first and second week, 0.1-0.2 mg/kg/day in drinking water", "value": "there was not observed a change"},
      {"measurement": "motor activity % in light period and the % of Pre value compared to the vehicle-administered group", "setting": "third to fifth week, 1-2 mg/kg/day in drinking water", "value": "decreased"}
    ]}
  ]
}
